Test results: patent US8440710B2, “HSL inhibitors useful in the treatment of diabetes” (Hoffmann-La Roche Inc., priority 2009, dated 2013)

Molecular target: T1, human HSL (Homo sapiens, UniProt Q05469)
T1 construct: generate a full length human HSL ORF with a 3′-His6 tag; made in house; host or cells: High 5 insect cells (baculovirus, pFast-BAC)
T1 sequence (Q05469 1-1076): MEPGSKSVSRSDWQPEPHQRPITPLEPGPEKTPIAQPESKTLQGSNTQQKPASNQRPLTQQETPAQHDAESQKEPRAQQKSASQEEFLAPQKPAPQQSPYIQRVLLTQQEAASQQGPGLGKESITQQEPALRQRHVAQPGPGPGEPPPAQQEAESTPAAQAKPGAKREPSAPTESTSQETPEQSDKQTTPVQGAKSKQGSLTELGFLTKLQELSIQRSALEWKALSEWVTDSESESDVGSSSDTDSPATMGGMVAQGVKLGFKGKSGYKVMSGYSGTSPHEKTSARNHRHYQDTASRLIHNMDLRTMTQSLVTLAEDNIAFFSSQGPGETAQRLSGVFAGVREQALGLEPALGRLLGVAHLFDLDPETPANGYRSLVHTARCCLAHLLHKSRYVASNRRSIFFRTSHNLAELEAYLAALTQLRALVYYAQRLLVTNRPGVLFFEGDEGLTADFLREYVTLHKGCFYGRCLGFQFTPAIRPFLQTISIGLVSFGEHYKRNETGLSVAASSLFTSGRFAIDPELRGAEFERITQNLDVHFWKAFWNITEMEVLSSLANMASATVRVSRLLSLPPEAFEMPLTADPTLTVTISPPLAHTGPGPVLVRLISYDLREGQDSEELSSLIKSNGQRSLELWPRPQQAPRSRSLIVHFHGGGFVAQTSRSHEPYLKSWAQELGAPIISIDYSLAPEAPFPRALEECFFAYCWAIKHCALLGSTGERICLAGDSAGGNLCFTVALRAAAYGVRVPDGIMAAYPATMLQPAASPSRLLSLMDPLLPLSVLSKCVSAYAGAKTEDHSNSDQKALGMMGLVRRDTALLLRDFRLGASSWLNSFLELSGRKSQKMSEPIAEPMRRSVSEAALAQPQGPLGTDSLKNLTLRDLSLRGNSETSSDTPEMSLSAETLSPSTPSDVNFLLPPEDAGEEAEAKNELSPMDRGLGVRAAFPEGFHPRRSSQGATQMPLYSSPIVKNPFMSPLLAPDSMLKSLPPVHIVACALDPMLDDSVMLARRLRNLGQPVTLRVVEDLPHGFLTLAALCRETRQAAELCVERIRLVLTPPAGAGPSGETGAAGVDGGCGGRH
Test: Human Hormone-Sensitive Lipase (HSL) enzyme inhibition assay (colorimetric, DMPT substrate)
Assay type: biochemical
Details: human full length HSL-His6, 2,3-dimercapto-1-propanol tributyrate substrate, 37° C. 20 minutes, absorbance at 405 nm; read-out: HSL hum IC50
Summary of the method: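 Full-length human HSL with C-terminal His6, expressed in baculovirus-infected High 5 cells and Ni-NTA purified, was added (15 ug/ml stock) to 1.5 mM DMPT in 100 mM MOPS pH 7.2, 0.2 mg/ml fatty acid-free BSA containing compound. After 20 min at 37 °C, DTNB with SDS/Triton X-100 was added; A405 read after 15 min at RT.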

Row | Compound | IC50
1 | O=C1N(c2ccc(C3CC(F)(F)C3)cc2)CC[C@]12CC[C@](O)(C(F)(F)F)CC2 [Example 341, (5α,8β)-2-[4-(3,3-Difluoro-cyclobutyl)-phenyl]-8-hydroxy-8-trifluoromethyl-2-aza-spiro[4.5]decan-1-one] | 1.35 µM
2 | COC[C@]1(O)CC[C@]2(CCN(c3ccc(C4CC(F)(F)C4)cc3)C2=O)CC1 [Example 342, (5α,8α)-2-[4-(3,3-Difluoro-cyclobutyl)-phenyl]-8-hydroxy-8-methoxymethyl-2-aza-spiro[4.5]decan-1-one] | 0.03 µM
3 | CCC[C@]1(O)CC[C@]2(CCN(c3ccc(C(C)(C)C)cc3)C2=O)CC1 [Example 343, (5α,8α)-2-(4-tert-Butyl-phenyl)-8-hydroxy-8-propyl-2-aza-spiro[4.5]decan-1-one] | 0.02 µM
4 | CC(C)[C@]1(O)CC[C@]2(CCN(c3ccc(C(C)(C)C)cc3)C2=O)CC1 [Example 344, (5α,8α)-2-(4-tert-Butyl-phenyl)-8-hydroxy-8-isopropyl-2-aza-spiro[4.5]decan-1-one] | 0.01 µM
5 | CC(C)(C)c1ccc(N2CC[C@]3(CC[C@@](O)(C(F)(F)F)CC3)C2=O)cc1 [Example 345, (5α,8α)-2-(4-tert-Butyl-phenyl)-8-hydroxy-8-trifluoromethyl-2-aza-spiro[4.5]decan-1-one] | 0.02 µM
6 | COC[C@]1(O)CC[C@]2(CCN(c3ccc(C(C)(C)C)cc3)C2=O)CC1 [Example 346, (5α,8α)-2-(4-tert-Butyl-phenyl)-8-hydroxy-8-methoxymethyl-2-aza-spiro[4.5]decan-1-one] | 0.02 µM
7 | CC(C)(C)c1ccc(N2CC[C@]3(CC[C@@](O)(COCC(F)(F)F)CC3)C2=O)cc1 [Example 347, (5α,8α)-2-(4-tert-Butyl-phenyl)-8-hydroxy-8-(2,2,2-trifluoro-ethoxymethyl)-2-aza-spiro[4.5]decan-1-one] | 0.01 µM
8 | CCOC[C@]1(O)CC[C@]2(CCN(c3ccc(C(C)(C)C)cc3)C2=O)CC1 [Example 348, (5α,8α)-2-(4-tert-Butyl-phenyl)-8-ethoxymethyl-8-hydroxy-2-aza-spiro[4.5]decan-1-one] | 0.01 µM
9 | CC(C)OC[C@]1(O)CC[C@]2(CCN(c3ccc(C(C)(C)C)cc3)C2=O)CC1 [Example 349, (5α,8α)-2-(4-tert-Butyl-phenyl)-8-hydroxy-8-isopropoxymethyl-2-aza-spiro[4.5]decan-1-one] | 0.01 µM
10 | CC(C)(C)c1ccc(N2CC[C@]3(CC[C@@](O)(CN4CCCC4=O)CC3)C2=O)cc1 [Example 350, (5α,8α)-2-(4-tert-Butyl-phenyl)-8-hydroxy-8-(2-oxo-pyrrolidin-1-ylmethyl)-2-aza-spiro[4.5]decan-1-one] | 0.01 µM
11 | CC(C)(C)c1ccc(N2CC[C@]3(CC[C@@](O)(CN4CCCCC4=O)CC3)C2=O)cc1 [Example 351, (5α,8α)-2-(4-tert-Butyl-phenyl)-8-hydroxy-8-(2-oxo-piperidin-1-ylmethyl)-2-aza-spiro[4.5]decan-1-one] | 0.01 µM
12 | CC(C)(C)c1ccc(N2CCC3(CCC(O)(COc4ccccn4)CC3)C2=O)cc1 (stereo not drawn) [Example 352, (5α,8α)-2-(4-tert-Butyl-phenyl)-8-hydroxy-8-(pyridin-2-yloxymethyl)-2-aza-spiro[4.5]decan-1-one] | 0.03 µM

Further lines, results first:

Row | IC50 | Compound
13 | 0.01 µM | CC(C)(C)c1ccc(N2CCC3(CCC(O)(Cn4ccccc4=O)CC3)C2=O)cc1 (stereo not drawn) [Example 353, (5α,8α)-2-(4-tert-Butyl-phenyl)-8-hydroxy-8-(2-oxo-2H-pyridin-1-ylmethyl)-2-aza-spiro[4.5]decan-1-one]
14 | 0.05 µM | CC(C)(C)c1ccc(N2CC[C@]3(CC[C@@](O)(COc4cccnc4)CC3)C2=O)cc1 [Example 354, (5α,8α)-2-(4-tert-Butyl-phenyl)-8-hydroxy-8-(pyridin-3-yloxymethyl)-2-aza-spiro[4.5]decan-1-one]
15 | 0.05 µM | CC(C)C(O)[C@H]1CC[C@@]2(CCN(c3ccc(C(C)(C)C)cc3)C2=O)CC1 (stereo partly drawn) [Example 355, (5α,8β)-2-(4-tert-Butyl-phenyl)-8-(1-hydroxy-2-methyl-propyl)-2-aza-spiro[4.5]decan-1-one]
16 | 0.1 µM | CC(C)C(O)[C@H]1CC[C@]2(CCN(c3ccc(C(C)(C)C)cc3)C2=O)CC1 (stereo partly drawn) [Example 356]
17 | 0.05 µM | CC(O)C1CCC2(CC1)CCN(c1ccc(C(C)(C)C)cc1)C2=O (stereo not drawn) [Example 357, (5α,8β)-2-(4-tert-Butyl-phenyl)-8-(1-hydroxy-ethyl)-2-aza-spiro[4.5]decan-1-one]
18 | 0.05 µM | CC(O)C1CCC2(CC1)CCN(c1ccc(C(C)(C)C)cc1)C2=O (stereo not drawn) [Example 358, (5α,8α)-2-(4-tert-Butyl-phenyl)-8-(1-hydroxy-ethyl)-2-aza-spiro[4.5]decan-1-one]
19 | 0.03 µM | CCC(O)[C@H]1CC[C@@]2(CCN(c3ccc(C(C)(C)C)cc3)C2=O)CC1 (stereo partly drawn) [Example 359, (5α,8β)-2-(4-tert-Butyl-phenyl)-8-(1-hydroxy-propyl)-2-aza-spiro[4.5]decan-1-one]
20 | 0.01 µM | CC(C)(C)c1ccc(N2CCC3(CCC(C(O)(O)C(F)(F)F)CC3)C2=O)cc1 (stereo not drawn) [Example 362, 2-(4-tert-Butyl-phenyl)-8-(2,2,2-trifluoro-1,1-dihydroxy-ethyl)-2-aza-spiro[4.5]decan-1-one]
21 | 0.03 µM | CC(C)(C)c1ccc(N2CC[C@]3(CC[C@@H](C(O)c4ccn[nH]4)CC3)C2=O)cc1 (stereo partly drawn) [Example 363, (5α,8β)-2-(4-tert-Butyl-phenyl)-8-[hydroxy-(2H-pyrazol-3-yl)-methyl]-2-aza-spiro[4.5]decan-1-one]
22 | 0.01 µM | CC(C)(C)c1ccc(N2CC[C@]3(CC[C@@H](Cc4ccn[nH]4)CC3)C2=O)cc1 [Example 364, (5α,8β)-2-(4-tert-Butyl-phenyl)-8-(2H-pyrazol-3-ylmethyl)-2-aza-spiro[4.5]decan-1-one]
23 | 0.05 µM | CCC(O)[C@H]1CC[C@@]2(CCN(c3ccc(O[C@H](C)C(F)(F)F)cc3)C2=O)CC1 (stereo partly drawn) [Example 365, (5α,8β)-8-(1-Hydroxy-propyl)-2-[4-((R)-2,2,2-trifluoro-1-methyl-ethoxy)-phenyl]-2-aza-spiro[4.5]decan-1-one]
24 | 0.29 µM | CCC(O)[C@H]1CC[C@]2(CCN(c3ccc(O[C@H](C)C(F)(F)F)cc3)C2=O)CC1 (stereo partly drawn) [Example 366, (5α,8α)-8-(1-Hydroxy-propyl)-2-[4-((R)-2,2,2-trifluoro-1-methyl-ethoxy)-phenyl]-2-aza-spiro[4.5]decan-1-one]
25 | 0.08 µM | O=C1CCCN1C[C@]1(O)CC[C@]2(CCN(c3ccc(OCC(F)(F)F)cc3)C2=O)CC1 [Example 367, (5α,8α)-8-Hydroxy-8-(2-oxo-pyrrolidin-1-ylmethyl)-2-[4-(2,2,2-trifluoro-ethoxy)-phenyl]-2-aza-spiro[4.5]decan-1-one]
26 | 0.08 µM | O=C1CCCCN1C[C@]1(O)CC[C@]2(CCN(c3ccc(OCC(F)(F)F)cc3)C2=O)CC1 [Example 368, (5α,8α)-8-Hydroxy-8-(2-oxo-piperidin-1-ylmethyl)-2-[4-(2,2,2-trifluoro-ethoxy)-phenyl]-2-aza-spiro[4.5]decan-1-one]
27 | 0.02 µM | O=c1ccccn1C[C@]1(O)CC[C@]2(CCN(c3ccc(OCC(F)(F)F)cc3)C2=O)CC1 [Example 369, (5α,8α)-8-Hydroxy-8-(2-oxo-2H-pyridin-1-ylmethyl)-2-[4-(2,2,2-trifluoro-ethoxy)-phenyl]-2-aza-spiro[4.5]decan-1-one]
